How the values were obtained:
SJSA-1 = assay: cells; settings: Homo sapiens
[1] = target: E3 ubiquitin-protein ligase Mdm2 (Homo sapiens, UniProt Q00987); assay: Inhibition of MDM2 (unknown origin)
Chain of E3 ubiquitin-protein ligase Mdm2 (Q00987 whole entry): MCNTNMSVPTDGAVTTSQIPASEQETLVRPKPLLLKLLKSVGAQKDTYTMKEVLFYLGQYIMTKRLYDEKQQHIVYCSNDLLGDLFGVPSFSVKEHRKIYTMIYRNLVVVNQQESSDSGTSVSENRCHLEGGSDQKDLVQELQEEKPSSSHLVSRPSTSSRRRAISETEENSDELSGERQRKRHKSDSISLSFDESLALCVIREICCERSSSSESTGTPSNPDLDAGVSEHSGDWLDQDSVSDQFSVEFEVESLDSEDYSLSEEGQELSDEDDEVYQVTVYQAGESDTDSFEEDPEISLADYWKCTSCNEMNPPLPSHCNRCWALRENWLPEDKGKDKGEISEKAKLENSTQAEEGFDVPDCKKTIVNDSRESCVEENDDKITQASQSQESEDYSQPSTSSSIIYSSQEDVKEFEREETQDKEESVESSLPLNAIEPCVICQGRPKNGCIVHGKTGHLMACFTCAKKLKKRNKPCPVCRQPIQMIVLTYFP

| IC50 (SJSA-1) [nM] | IC50 [1] [nM] | Compound |
| --- | --- | --- |
| 5 | – | CN(C[C@H](C1CC1)N1C(=O)[C@@](C)(CC(=O)O)C[C@H](c2cccc(Cl)c2)[C@H]1c1ccc(Cl)cc1)S(=O)(=O)C1CC1 |
| – | 5.57 | CC1(C)CCC2(CC1)N[C@@H](C(=O)N[C@@H]1CC[C@@H](C(N)=O)OC1)[C@H](c1ccnc(Cl)c1F)[C@]21C(=O)Nc2cc(Cl)ccc21 |
| – | 20 | Nc1ccn([C@@H]2O[C@H](CO)[C@@H](O)[C@@H]2O)c(=O)n1 [CYTARABINE] |

Source: ChEMBL document CHEMBL4265957, “The development of piperidinones as potent MDM2-P53 protein-protein interaction inhibitors for cancer therapy” (Eur J Med Chem, 2018)
